Data on 15 molecules can be found in US10493125B2 (Merck Sharp & Dohme Corp., priority 2015, dated 2019).

Like-named read-outs stand apart in the source and are kept apart here. Starred links: 1 amine or outer side, 2 acyl side, 3 side chain; linkers in the order of their positions; H or OH if unused. Non-standard residues stand in square brackets, D forms with d. Residues, ends and D or L forms follow the SMILES beside them. Groups on a side chain read outwards from the residue. No end group written: not given here. *: point of attachment. γGlu = O=C(O)[C@H](CCC(=O)[*:2])N[*:1]; Palmitoyl = CCCCCCCCCCCCCCCC(=O)* Bounds are passed on as bounds.

For experiment [1], the target named is T1, human GLP1R (Homo sapiens, UniProt P43220).
T1 construct: expressed in transfected cells
The experiment is described as follows: cAMP activity assay (HitHunter cAMP XS), cells expressing human GLP1R. The experiment is classed as cell-based. The procedure: (§1) Peptides were dissolved in 100% DMSO and serially diluted to generate 10 point titrations. The peptide solutions were then transferred into 384-well assay plates (150 nL/well). Assay ready frozen cells expressing human GLP1R or human GCGR were suspended in growth media consisting of DMEM medium (GIBCO), 10% FBS (GIBCO), 1×NEAA(GIBCO), 1× P/S (GIBCO), 10 ug/ml Blasticidin (GIBCO) and 200 μg/mL Hygromycin (GIBCO). […] The cell suspensions (15 μL) were then added to the assay plates containing the peptide solutions (30,000 cells/well for human GCGR; 10,000 cells/well for human GLP1R). The cells were incubated for 1 hour at room temperature in the dark. Production of cAMP was determined using HitHunter™ cAMPXS kits (DiscoverX) following manufacturer protocol. The plates were incubated for overnight at room temperature in the dark. Luminescence was measured using an EnVision Multilabel plate reader (Perkin Elmer). […] EC50 values were calculated using uses a 4 parameter logistic fit based on the Levenberg-Marquardt algorithm.

For experiment [2], the target named is T2, human GCGR (Homo sapiens, UniProt P47871).
T2 construct: expressed in transfected cells
The experiment is described as follows: cAMP activity assay (HitHunter cAMP XS), cells expressing human GCGR. The experiment is classed as cell-based. As to conditions: for EC50: read-out: EC50 hGCGR; for Ratio: EC50 hGCGR divided by EC50 hGLP1. Here is the method: as §1

[3] abbreviates: Table 2, cAMP production, read-out: EC50 hGLP1R.
Where [4] appears, read: Table 7, lipidated analogs vs parental peptides, read-out: EC50 hGLP1.
[5] abbreviates: Table 7, lipidated analogs vs parental peptides.

T2 sequence (P47871 26-477): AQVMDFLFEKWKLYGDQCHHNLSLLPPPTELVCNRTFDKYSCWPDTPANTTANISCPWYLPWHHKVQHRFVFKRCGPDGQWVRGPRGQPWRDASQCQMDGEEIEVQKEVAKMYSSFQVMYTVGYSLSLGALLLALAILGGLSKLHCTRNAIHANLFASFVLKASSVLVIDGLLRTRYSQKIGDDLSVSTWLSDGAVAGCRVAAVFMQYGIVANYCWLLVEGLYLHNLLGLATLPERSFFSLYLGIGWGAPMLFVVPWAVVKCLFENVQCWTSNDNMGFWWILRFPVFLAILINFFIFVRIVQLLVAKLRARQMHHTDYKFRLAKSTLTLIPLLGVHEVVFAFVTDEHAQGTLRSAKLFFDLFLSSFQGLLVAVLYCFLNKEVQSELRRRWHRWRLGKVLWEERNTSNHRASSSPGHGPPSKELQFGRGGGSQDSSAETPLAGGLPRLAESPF
T1 sequence (P43220 24-463): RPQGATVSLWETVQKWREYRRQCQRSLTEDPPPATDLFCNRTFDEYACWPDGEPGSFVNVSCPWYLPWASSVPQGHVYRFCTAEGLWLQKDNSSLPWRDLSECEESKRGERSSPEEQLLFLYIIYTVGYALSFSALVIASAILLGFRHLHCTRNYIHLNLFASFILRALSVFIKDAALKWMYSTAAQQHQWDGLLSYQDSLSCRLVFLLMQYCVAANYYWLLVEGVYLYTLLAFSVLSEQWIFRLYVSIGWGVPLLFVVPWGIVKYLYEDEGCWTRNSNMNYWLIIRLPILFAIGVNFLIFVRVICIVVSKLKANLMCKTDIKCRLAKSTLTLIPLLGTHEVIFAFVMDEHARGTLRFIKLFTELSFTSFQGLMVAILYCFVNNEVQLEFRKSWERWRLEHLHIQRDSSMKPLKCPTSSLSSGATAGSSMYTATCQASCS

One may read the EC50 as the concentration at which the effect is half-maximal. As for `CC(C)C[C@H](NC(=O)[C@H](CC(C)C)NC(=O)[C@H](Cc1c[nH]c2ccccc12)NC(=O)[C@H](CCC(N)=O)NC(=O)[C@@H](NC(=O)[C@H](Cc1ccccc1)NC(=O)[C@H](CC(=O)O)NC(=O)[C@H](CCC(N)=O)NC(=O)[C@H](C)NC(=O)[C@H](CCCNC(=N)N)NC(=O)[C@H](CCCNC(=N)N)NC(=O)[C@H](CO)NC(=O)[C@H](CC(=O)O)NC(=O)[C@H](CC(C)C)NC(=O)[C@H](Cc1ccc(O)cc1)NC(=O)[C@H](CCCCN)NC(=O)[C@H](CO)NC(=O)[C@H](Cc1ccc(O)cc1)NC(=O)[C@H](CC(=O)O)NC(=O)[C@H](CO)NC(=O)[C@@H](NC(=O)[C@H](Cc1ccccc1)NC(=O)[C@@H](NC(=O)CNC(=O)[C@H](CCC(N)=O)NC(=O)[C@H](CO)NC(=O)[C@@H](N)Cc1c[nH]cn1)[C@@H](C)O)[C@@H](C)O)C(C)C)C(=O)N[C@@H](CC(N)=O)C(=O)N[C@@H](CCC(N)=O)C(N)=O` [PD57], the half-maximal effective concentration (EC50) in experiment [1] (setting [3]) came out at 0.01 nM; in experiment [2] (Table 2, cAMP production) it was 0.02 nM.

On to `CC(C)C[C@H](NC(=O)[C@H](CC(C)C)NC(=O)[C@H](Cc1c[nH]c2ccccc12)NC(=O)[C@H](CCC(N)=O)NC(=O)[C@@H](NC(=O)[C@H](Cc1ccccc1)NC(=O)[C@H](CC(=O)O)NC(=O)[C@H](CCC(N)=O)NC(=O)[C@H](C)NC(=O)[C@H](CCCNC(=N)N)NC(=O)[C@H](CCCNC(=N)N)NC(=O)[C@H](CO)NC(=O)[C@H](CC(=O)O)NC(=O)[C@H](CC(C)C)NC(=O)[C@H](Cc1ccc(O)cc1)NC(=O)[C@H](CCCCN)NC(=O)[C@H](CO)NC(=O)[C@H](Cc1ccc(O)cc1)NC(=O)[C@H](CC(=O)O)NC(=O)[C@H](CO)NC(=O)[C@@H](NC(=O)[C@H](Cc1ccccc1)NC(=O)[C@@H](NC(=O)CNC(=O)[C@H](CCC(N)=O)NC(=O)[C@H](CO)NC(=O)[C@@H](N)Cc1c[nH]cn1)[C@@H](C)O)[C@@H](C)O)C(C)C)C(=O)N[C@@H](CC(=O)O)C(=O)N[C@@H](CO)C(N)=O` [PD59], for which the concentration giving a half-maximal response (EC50) in experiment [1] (setting [3]) is 0.01 nM; in experiment [2] (Table 2, cAMP production) it was 0.02 nM.

With `CCCCCCCCCCCCCCCC(=O)N[C@@H](CCC(=O)N[C@@H](CCC(=O)NCCCC[C@H](NC(=O)[C@H](CC(=O)O)NC(=O)[C@H](CO)NC(=O)[C@@H](NC(=O)[C@H](Cc1ccccc1)NC(=O)[C@@H](NC(=O)CNC(=O)[C@H](CCC(N)=O)NC(=O)[C@@H](CO)NC(=O)[C@@H](N)Cc1c[nH]cn1)[C@@H](C)O)[C@@H](C)O)C(=O)N[C@@H](CO)C(=O)N[C@@H](CCCCN)C(=O)N[C@@H](Cc1ccc(O)cc1)C(=O)N[C@@H](CC(C)C)C(=O)N[C@@H](CC(=O)O)C(=O)N[C@@H](CC(N)=O)C(=O)N[C@@H](CCCCN)C(=O)N[C@@H](CCCNC(=N)N)C(=O)N[C@@H](C)C(=O)N[C@@H](CCC(N)=O)C(=O)N[C@@H](CC(=O)O)C(=O)N[C@@H](Cc1ccccc1)C(=O)N[C@H](C(=O)N[C@@H](CCC(N)=O)C(=O)N[C@@H](Cc1c[nH]c2ccccc12)C(=O)N[C@@H](CC(C)C)C(=O)N[C@@H](CCSC)C(=O)N[C@@H](CCC(N)=O)C(=O)N[C@H](C(N)=O)[C@@H](C)O)C(C)C)C(=O)O)C(=O)O` [TP534] (H-H[dS]QGTFTSDK([γGlu-γGlu-Palmitoyl])SKYLDNKRAQDFVQWLMQT-NH2; N-terminus assumed), the concentration for a half-maximal effect (EC50) worked out at 0.02 nM in experiment [1] (setting [4]) and 0.01 nM in experiment [2] (setting [5]). Further, the Ratio in experiment [2] (Table 7) was determined as 0.5.

Turning to `CCCCCCCCCCCCCCCC(=O)N[C@@H](CCC(=O)N[C@@H](CCC(=O)NCCCC[C@H](NC(=O)[C@H](CC(=O)O)NC(=O)[C@H](CO)NC(=O)[C@@H](NC(=O)[C@H](Cc1ccccc1)NC(=O)[C@@H](NC(=O)CNC(=O)[C@H](CCC(N)=O)NC(=O)[C@@H](CO)NC(=O)[C@@H](N)Cc1c[nH]cn1)[C@@H](C)O)[C@@H](C)O)C(=O)N[C@@H](CO)C(=O)N[C@@H](CCCCN)C(=O)N[C@@H](Cc1ccc(O)cc1)C(=O)N[C@@H](CC(C)C)C(=O)N[C@@H](CC(=O)O)C(=O)N[C@@H](CO)C(=O)N[C@@H](CCCNC(=N)N)C(=O)N[C@@H](CCCNC(=N)N)C(=O)N[C@@H](C)C(=O)N[C@@H](Cc1c[nH]cn1)C(=O)N[C@@H](CC(=O)O)C(=O)N[C@@H](Cc1ccccc1)C(=O)N[C@H](C(=O)N[C@@H](CCC(N)=O)C(=O)N[C@@H](Cc1c[nH]c2ccccc12)C(=O)N[C@@H](CC(C)C)C(=O)N[C@@H](CC(C)C)C(=O)N[C@@H](CC(N)=O)C(=O)N[C@H](C(N)=O)[C@@H](C)O)C(C)C)C(=O)O)C(=O)O` [TP535] (H-H[dS]QGTFTSDK([γGlu-γGlu-Palmitoyl])SKYLDSRRAHDFVQWLLNT-NH2; N-terminus assumed), the results for the 50% effective concentration (EC50) in experiment [1] (setting [4]) and in experiment [2] (setting [5]) were 0.05 nM and 0.02 nM, respectively. For the same molecule, in experiment [2] (Table 7), the Ratio is listed as 0.4.

`CC(C)C[C@H](NC(=O)[C@H](CC(C)C)NC(=O)[C@H](CCCCN)NC(=O)[C@H](CO)NC(=O)[C@H](Cc1ccc(O)cc1)NC(=O)[C@H](CC(=O)O)NC(=O)[C@H](CO)NC(=O)[C@H](CC(C)C)NC(=O)[C@H](Cc1ccccc1)NC(=O)[C@@H](NC(=O)CNC(=O)[C@H](CCC(N)=O)NC(=O)[C@@H](CO)NC(=O)[C@@H](N)Cc1c[nH]cn1)[C@@H](C)O)C(=O)N[C@@H](CC(=O)O)C(=O)N[C@@H](CO)C(=O)N[C@@H](CCCNC(=N)N)C(=O)N[C@@H](C)C(=O)N[C@@H](C)C(=O)N[C@@H](CCC(N)=O)C(=O)N[C@@H](CC(=O)O)C(=O)N[C@@H](Cc1ccccc1)C(=O)N[C@H](C(=O)N[C@@H](CCC(N)=O)C(=O)N[C@@H](Cc1c[nH]c2ccccc12)C(=O)N[C@@H](CC(C)C)C(=O)N[C@@H](CC(C)C)C(=O)N[C@@H](CCC(N)=O)C(=O)N[C@H](C(N)=O)[C@@H](C)O)C(C)C` [TP552] (H-H[dS]QGTFLSDYSKLLDSRAAQDFVQWLLQT-NH2; N-terminus assumed): the values for the EC50 in experiment [1] (setting [4]) and in experiment [2] (setting [5]) were ≥ 5 nM and 0.02 nM, respectively. The Ratio in experiment [2] (Table 7) is on record as 0.004.

`CCCCCCCCCCCCCCCC(=O)N[C@@H](CCC(=O)N[C@@H](CCC(=O)NCCCC[C@H](NC(=O)[C@H](CC(=O)O)NC(=O)[C@H](CO)NC(=O)[C@@H](NC(=O)[C@H](Cc1ccccc1)NC(=O)[C@@H](NC(=O)CNC(=O)[C@H](CCC(N)=O)NC(=O)[C@@H](CO)NC(=O)[C@@H](N)Cc1c[nH]cn1)[C@@H](C)O)[C@@H](C)O)C(=O)N[C@@H](CO)C(=O)N[C@@H](CCCCN)C(=O)N[C@@H](Cc1ccc(O)cc1)C(=O)N[C@@H](CC(C)C)C(=O)N[C@@H](CC(=O)O)C(=O)N[C@@H](C)C(=O)N[C@@H](CCCNC(=N)N)C(=O)N[C@@H](C)C(=O)N[C@@H](C)C(=O)N[C@@H](Cc1c[nH]cn1)C(=O)N[C@@H](CC(=O)O)C(=O)N[C@@H](Cc1ccccc1)C(=O)N[C@H](C(=O)N[C@@H](CCC(N)=O)C(=O)N[C@@H](Cc1c[nH]c2ccccc12)C(=O)N[C@@H](CC(C)C)C(=O)N[C@@H](CC(C)C)C(=O)N[C@@H](CC(N)=O)C(=O)N[C@H](C(N)=O)[C@@H](C)O)C(C)C)C(=O)O)C(=O)O` [TP559] (H-H[dS]QGTFTSDK([γGlu-γGlu-Palmitoyl])SKYLDARAAHDFVQWLLNT-NH2): the EC50 stood at 0.05 nM in experiment [1] (setting [4]) and 0.02 nM in experiment [2] (setting [5]). In addition, the Ratio in experiment [2] (Table 7) was determined as 0.4.

For the molecule “H-HSQGIFFSDYSKYLDSRRAQDFVQWLMNT-NH2 [PD52]”, the concentration for a half-maximal effect (EC50) in experiment [1] (setting [3]) came to 0.02 nM; in experiment [2] (Table 2, cAMP production), 0.03 nM.

As to “H-HSQGTFFSDYSKYLDSRRAQDFVQWLLET-NH2 [PD58]”, the EC50 in experiment [1] (setting [3]) was 0.02 nM; in experiment [2] (Table 2, cAMP production), 0.03 nM.

Regarding “H-HSQGTFTSDYSKYLDSIRAQDFVQWLMDT-NH2 [PD36]”, the 50% effective concentration (EC50) in experiment [1] (setting [3]) came to 0.06 nM; in experiment [2] (Table 2, cAMP production), 0.04 nM.

Take “H-HSQGTFTSDYSKYLDSLMAQDFVQWLMST-NH2 [PD22]”: the concentration for a half-maximal effect (EC50) stood at 0.03 nM in experiment [1] (setting [3]) and 0.02 nM in experiment [2] (Table 2, cAMP production).

Consider “H-HSQGTFTSDYSKYLDSRRAHDFVQWLLNT-NH2 [PD29]”, for which the half-maximal effective concentration (EC50) came to 0.02 nM in experiment [1] (setting [3]) and 0.02 nM in experiment [2] (Table 2, cAMP production). Moreover, the Ratio in experiment [2] (Table 7) amounted to 1.

Consider “HSQGTFTSDYSKYLDELRAYDFVQWLMNT-NH2 [PD27]”, for which the EC50 in experiment [1] (setting [3]) turned out to be 0.03 nM; in experiment [2] (Table 2, cAMP production), 0.05 nM.

As for “HSQGTFTSDYSKYLDNKRAQDFVQWLMQT-NH2 [PD37]”, the concentration giving a half-maximal response (EC50) in experiment [1] (setting [4]) was determined as 0.05 nM; in experiment [2] (setting [5]), 0.16 nM. The Ratio in experiment [2] (Table 7) was found to be 3.2.

In the case of “HSQGTFTSDYSKYLDSKRAHDFVQWLLNT-NH2 [PD45]”, the 50% effective concentration (EC50) came out at 0.02 nM in experiment [1] (setting [3]) and 0.03 nM in experiment [2] (Table 2, cAMP production).

On to “HSQGTFTSDYSKYLDSRMAYDFVQWLMNT-NH2 [PD56]”, for which the half-maximal effective concentration (EC50) was 0.05 nM in experiment [1] (setting [3]) and 0.08 nM in experiment [2] (Table 2, cAMP production).
